Results on nine compounds are retold here after ChEMBL document CHEMBL1127881 (Bioorg Med Chem Lett, 1994).

SMILES strings stand for the structures.

What all share (type): tissue-based
In assay [1] the target is Muscarinic acetylcholine receptor. The assay is described as follows: Compound was tested for its ability to inhibit muscarinic receptor in rat cerebral cortex using [3H]quinuclidinyl benzilate (QNB); Range is 4300-9500.
For assay [2] the target is unchanged. Kind of assay: Compound was tested for its ability to inhibit muscarinic receptor in rat cerebral cortex using [3H]oxotremorine-M (OXO-M); Range is 120-220.
Assay [3] shares this target. The assay is described as follows: Compound was tested for its ability to inhibit muscarinic receptor in rat cerebral cortex using [3H]quinuclidinyl benzilate (QNB); Range is 530-1100.
The target is the same in assay [4]. The assay is described as follows: Compound was tested for its ability to inhibit muscarinic receptor in rat cerebral cortex using [3H]oxotremorine-M (OXO-M); Range is 48-100.
For assay [5] the target is unchanged. The assay is described as follows: Compound was tested for its ability to inhibit muscarinic receptor in rat cerebral cortex using [3H]oxotremorine-M (OXO-M); Range is 28-58.
Assay [6] shares this target. The assay is described as follows: Compound was tested for its ability to inhibit muscarinic receptor in rat cerebral cortex using [3H]quinuclidinyl benzilate (QNB);.
For assay [7] the target is unchanged. Kind of assay: Compound was tested for its ability to inhibit muscarinic receptor in rat cerebral cortex using [3H]oxotremorine-M (OXO-M); Range is 240-290.
For assay [8] the target is unchanged. Kind of assay: Compound was tested for its ability to inhibit muscarinic receptor in rat cerebral cortex using [3H]quinuclidinyl benzilate (QNB); Range is 3400-4200.
The target is the same in assay [9]. The assay is described as follows: Compound was tested for its ability to inhibit muscarinic receptor in rat cerebral cortex using [3H]oxotremorine-M (OXO-M); Range is 21-36.
Assay [10] shares this target. Kind of assay: Compound was tested for its ability to inhibit muscarinic receptor in rat cerebral cortex using [3H]quinuclidinyl benzilate (QNB); Range is 730-1300.
Assay [11] has the same target. The assay is described as follows: Compound was tested for its ability to inhibit muscarinic receptor in rat cerebral cortex using [3H]oxotremorine-M (OXO-M); Range is 62-70.
The target is the same in assay [12]. Kind of assay: Compound was tested for its ability to inhibit muscarinic receptor in rat cerebral cortex using [3H]quinuclidinyl benzilate (QNB); Range is […].
The target is the same in assay [13]. Kind of assay: Compound was tested for its ability to inhibit muscarinic receptor in rat cerebral cortex using [3H]oxotremorine-M (OXO-M); Range is 18-21.
Assay [14] shares this target. The assay is described as follows: Compound was tested for its ability to inhibit muscarinic receptor in rat cerebral cortex using [3H]quinuclidinyl benzilate (QNB); Range is 330-360.
Assay [15] shares this target. The assay is described as follows: Compound was tested for its ability to inhibit muscarinic receptor in rat cerebral cortex using [3H]oxotremorine-M (OXO-M); Range is 65-260.
Assay [16] has the same target. The assay is described as follows: Compound was tested for its ability to inhibit muscarinic receptor in rat cerebral cortex using [3H]quinuclidinyl benzilate (QNB); Range is 9700-23000.

As usually defined, the IC50 is the point on the concentration scale where inhibition reaches its midpoint. Lower therefore signals greater potency in that assay. For `CO/N=C(/C#N)C1=CCCN(C)C1`, the results for the IC50 in assay [1] and in assay [2] were 4.5 µM and 150 nM, respectively.
In the case of `CO/N=C(/Cl)C1=CC2CCN(C1)C2` (configuration not stated), the half-maximal inhibitory concentration (IC50) in assay [3] turned out to be 770 nM; in assay [4] it was 69 nM.
As to `CO/N=C(/F)C1=CCCN(C)C1`, the IC50 in [5] is 39 nM.
Regarding `CO/N=C(/Cl)C1=CCCN(C)C1`, the values for the 50% inhibitory concentration (IC50) in assay [6] and in assay [7] were 2800 nM and 260 nM, respectively.
With `COC(=O)C1=CC2CCN(C1)C2` (configuration not stated), the half-inhibitory concentration (IC50) in [8] was determined as 3.8 µM; in [9], 27 nM.
Consider `CO/N=C\C1=CC2CCN(C1)C2` (configuration not stated), for which the concentration for half-maximal inhibition (IC50) in assay [10] is reported as 960 nM; in [11] it was 64 nM.
Take `CO/N=C(/F)C1=CC2CCN(C1)C2` (configuration not stated): the IC50 in assay [5] came out at 26 nM; in assay [12] it was 630 nM.
Regarding `CO/N=C(/C#N)C1=CC2CCN(C1)C2` (configuration not stated), the figures for the half-maximal inhibitory concentration (IC50) in assay [13] and in assay [14] were 20 nM and 350 nM, respectively.
In the case of `CO/N=C\C1=CCCN(C)C1`, the values for the 50% inhibitory concentration (IC50) in [15] and in [16] were 110 nM and 14 µM, respectively.
